Assay results: patent US8877437B1, “Methods of using dyes in association with nucleic acid staining or detection” (Biotium, Inc., priority 2009, dated 2014)
Read-outs that look alike come from different tables or passages of the source.

Key:
nucleic acid = details: cited from earlier work
cells = details: cited from earlier work
aquatic life = details: in vivo; cited from earlier work
[1] = Hydrolytic and thermal stability for pre-cast gel preparation and storage; assay type: physicochemical
Description: In a gel electrophoresis application, an agarose gel may be prepared by heating (via microwave, for example) a suspension of agarose powder in an electrophoresis buffer, such as lithium borate buffer, thereby producing a hot agarose solution, pouring the solution onto a slab, and cooling the solution, thereby producing a useful gel. […] For example, in a pre-cast gel staining application, SYBR Green I dye is generally combined with an agarose solution after the initial agarose suspension has been heated and the resulting agarose solution has been cooled as much as possible. Combining the SYBR Green I dye with the agarose solution in this manner may be a delicate task, as if the temperature of the agarose solution is too high, the dye my decompose, and if the temperature of the agarose solution is too low, the agarose solution may gel up such that the dye and the solution are inadequately combined or mixed. Further by way of example, in a pre-cast gel staining application, a pre-cast gel prepared with SYBR Green I is generally used within 24 hours, as it may lose utility thereafter. […] This dye may offer sufficient to exceptional stability, as well as low or minimal background fluorescence relative to EB and low or minimal toxicity relative to EB, as further described below.

[2] = Stability of dye in gel electrophoresis buffer (room temperature, microwave heating); assay type: physicochemical
[3] = cited from earlier work
[4] = test not named; cited from earlier work
[5] = pre-cast gel containing the dye

Question: For `CN(C)c1ccc2cc3ccc(N(C)C)cc3nc2c1` [AO, Acridine orange], which “affinity for nucleic acid” value (nucleic acid) is on record?
Answer: Its value is “very low”.

Question: For `CN(C)c1ccc2cc3ccc(N(C)C)cc3[n+](CCCCCC(=O)NCCCOCCOCCOCCCNC(=O)CCCCC[n+]3c4cc(N(C)C)ccc4cc4ccc(N(C)C)cc43)c2c1.[I-].[I-]` [GelGreen], which cytotoxicity (cells) is on record?
Answer: Its cytotoxicity is “noncytotoxic”.

Question: And the “safety to aquatic life” value (aquatic life)?
Answer: The value was “safe to aquatic life”.

Question: For `Nc1ccc2c(c1)c(-c1ccccc1)[n+](CCCCCC(=O)NCCCOCCOCCOCCCNC(=O)CCCCC[n+]1c(-c3ccccc3)c3cc(N)ccc3c3ccc(N)cc31)c1cc(N)ccc21` [Dye No. 35], which “hydrolytic and thermal stability for preparation of a pre-cast gel” value [1] is on record?
Answer: The value was “sufficient hydrolytic and thermal stability”.

Question: What about the “storage of pre-cast gel without loss of performance” value [1, 5] of the same molecule?
Answer: The value was “at least 3 months”.

Question: What about the “time heated in a microwave oven without decomposition” value ([2]; in TBE buffer) of the same molecule?
Answer: The value was “at least 10 minutes”.

Question: And the “time stable in electrophoresis buffer” value ([2]; lithium borate buffer, room temperature)?
Answer: Its value is “at least 6 months”.

Question: For `CCCN1C=C/C(=C\c2sc3ccccc3[n+]2C)c2ccccc21` [SYBR Safe], which cytotoxicity (cells) is on record?
Answer: The cytotoxicity was “cytotoxic at relatively high concentrations”.

Question: What about the “safety to aquatic life” value (aquatic life) of the same molecule?
Answer: Its value is “safe to aquatic life”.

Question: Which results are given for `CC[n+]1c(-c2ccccc2)c2cc(N)ccc2c2ccc(N)cc21` [EB, ethidium bromide]?
Answer: hydrolytic and thermal stability for preparation of a pre-cast gel ([3]; reference dyes, general statement): sufficiently stable, both hydrolytically and thermally; mutagenicity [4]: powerful mutagen

Question: For `CCCN(CCCN(C)C)c1cc(/C=C2/Sc3ccccc3N2C)c2ccccc2[n+]1-c1ccccc1` [SYBR Green I], which cytotoxicity (cells) is on record?
Answer: The cytotoxicity was “cytotoxic at relatively high concentrations”.

Question: What about the “time within which pre-cast gel is used before losing utility” value [3, 5] of the same molecule?
Answer: Its value is ≤ 24 h.

Question: What does the source list for `Nc1ccc2c(c1)c(-c1ccccc1)[n+](CCCCCC(=O)NCCCOCCOCCOCCCNC(=O)CCCCC[n+]1c(-c3ccccc3)c3cc(N)ccc3c3ccc(N)cc31)c1cc(N)ccc21.[I-].[I-]` [GelRed]?
Answer: cytotoxicity (cells): noncytotoxic; safety to aquatic life (aquatic life): safe to aquatic life
